The source of these data is patent US20090298857A1, “Treatment of Neurodegenerative Diseases Through Inhibition of HSP90” (SLOAN-KETTERING INSTITUTE FOR CANCER RESEARCH, priority 2006, published 2009).

Molecules are shown by their SMILES. Where two headings read alike, the source gives them in different places.

Data set [1] concerns p35 in primary neurons, COS-7/p35 and COS-7/p35/Tau cells. The data set is described as follows: p35 degradation and Tau phosphorylation in primary neurons and transfected COS-7 cells. It is filed as cell-based, rat. Conditions: compared with PU24FC1. How it is done:
To further examine the roles played by Hsp90 in tauopathy, we made use of both PU24FC1 and 17-(allyllamino)-17-demethoxygeldanamycin (17AAG) and investigated their effects on both cdk5/p35 and TauP301L in primary neuronal and COS-7 cell cultures. Primary neuronal cultures were derived from the cerebral cortices of embryonic day 17 rat embryos and maintained as described previously (105). To determine the effects of PU24FC1 on protein steady-states and on Tau phosphorylation, PU24FC1 was added at day 6 of culture, and cells were incubated at 37° C. as indicated. […] After incubation, cells were harvested and lysed in 2% SDS, and the resulting samples were analyzed by Western blotting.
Phosphorylation of Tau by cdk5 is initiated through activation by complex formation with one of the neuron-specific proteins p35 or p39. […] In concordance, we assessed the influence of Hsp90 inhibition on p35 cellular expression. A dose- and time-dependent degradation of p35 by PU24FC1 was detected in primary neurons by immunoblot and by immunofluorescence techniques, as well as in COS-7/p35 and COS-7/p35/Tau cells. […]
We detected a dose- and time-dependent degradation of p35 by PU24FC1 in primary neurons, as well as in COS-7/p35 and COS-7/p35/Tau cells. […] Reduction of p35 levels by Hsp90 inhibition affected the activity of the cdk5/p35 complex, as measured using a substrate of cdk5, the histone-H1. […]

The target in the next data set is P-glycoprotein (Homo sapiens, UniProt P08183). Conditions: known Hsp90 inhibitor, cited from earlier work.
The conditions of data set [2]: known Hsp90 inhibitors; cited from earlier work.

Sequence of P-glycoprotein (P08183 whole entry): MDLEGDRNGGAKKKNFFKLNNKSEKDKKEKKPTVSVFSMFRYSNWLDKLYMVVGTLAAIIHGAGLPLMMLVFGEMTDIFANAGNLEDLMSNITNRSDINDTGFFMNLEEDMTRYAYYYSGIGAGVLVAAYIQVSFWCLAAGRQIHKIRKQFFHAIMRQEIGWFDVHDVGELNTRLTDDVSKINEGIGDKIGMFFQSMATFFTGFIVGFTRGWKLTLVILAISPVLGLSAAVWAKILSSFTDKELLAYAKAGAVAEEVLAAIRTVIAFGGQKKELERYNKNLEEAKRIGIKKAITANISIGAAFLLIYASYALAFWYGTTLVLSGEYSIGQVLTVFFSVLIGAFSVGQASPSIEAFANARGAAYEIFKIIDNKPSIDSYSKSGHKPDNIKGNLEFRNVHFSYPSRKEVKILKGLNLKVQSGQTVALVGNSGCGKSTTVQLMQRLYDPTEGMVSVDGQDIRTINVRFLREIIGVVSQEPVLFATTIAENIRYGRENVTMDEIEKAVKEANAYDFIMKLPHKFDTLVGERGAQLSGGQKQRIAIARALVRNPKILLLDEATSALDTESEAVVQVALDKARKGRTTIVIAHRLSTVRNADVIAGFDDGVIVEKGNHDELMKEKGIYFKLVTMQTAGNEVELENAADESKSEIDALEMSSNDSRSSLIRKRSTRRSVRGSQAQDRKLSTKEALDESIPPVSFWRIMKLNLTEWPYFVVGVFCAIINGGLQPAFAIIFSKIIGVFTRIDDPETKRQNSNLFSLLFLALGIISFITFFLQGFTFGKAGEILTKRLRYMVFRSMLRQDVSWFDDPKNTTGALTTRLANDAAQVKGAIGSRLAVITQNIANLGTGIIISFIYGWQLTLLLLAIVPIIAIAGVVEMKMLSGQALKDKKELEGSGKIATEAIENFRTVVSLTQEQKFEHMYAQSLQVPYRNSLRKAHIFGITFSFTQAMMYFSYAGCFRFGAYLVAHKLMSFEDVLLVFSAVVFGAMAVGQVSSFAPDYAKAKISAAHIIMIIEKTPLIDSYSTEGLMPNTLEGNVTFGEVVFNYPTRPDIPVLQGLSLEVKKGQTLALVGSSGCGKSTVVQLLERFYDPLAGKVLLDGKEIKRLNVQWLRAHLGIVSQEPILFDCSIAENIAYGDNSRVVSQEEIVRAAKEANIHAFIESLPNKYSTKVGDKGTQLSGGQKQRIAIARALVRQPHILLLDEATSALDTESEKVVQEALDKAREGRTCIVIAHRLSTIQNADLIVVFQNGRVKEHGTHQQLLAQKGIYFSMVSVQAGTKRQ

For the compound `C=CCNC1=C2C[C@@H](C)C[C@H](OC)[C@H](O)[C@@H](C)/C=C(\C)[C@H](OC(N)=O)[C@@H](OC)/C=C\C=C(/C)C(=O)NC(=CC1=O)C2=O` [Compound 17AAG, 17-(allyllamino)-17-demethoxygeldanamycin], the “effects on p35 and mTau” value in data set [1] was “Analogous effects”. For the same compound, the P-gp substrate result at P-glycoprotein is “is a P-gp substrate”; at P-glycoprotein (listed as 17-AAG), “is a P-glycoprotein substrate”. Besides, in data set [2], the solubility result was “poorly soluble”.

On to `C[C@@H]1C[C@H]2O[C@@H]2/C=C\C=C\C(=O)Cc2c(Cl)c(O)cc(O)c2C(=O)O1` [radicicol], for which the solubility entry in data set [2] is given as “poorly soluble”.

Consider `COC1=C2C[C@@H](C)C[C@H](OC)[C@H](O)[C@@H](C)/C=C(\C)[C@H](OC(N)=O)[C@@H](OC)/C=C\C=C(/C)C(=O)NC(=CC1=O)C2=O` [geldanamycin], for which the solubility result in data set [2] is on record as “poorly soluble”.
